Values after ≈ are worked out from the molar mass of the structure shown. Where two headings read alike, the source gives them in different places.
How the values were obtained:
LNCaP cells = assay: Cell uptake and stability in LNCaP cellular culture; type: in vitro ADME, human; settings: 10 μM, up to 120 h
Procedure: Following 1, 6, 24, 48, 72 and 120 h incubation, media was collected from cells and immediately frozen at −80 °C. Cells were trypsinised, pelleted and then frozen at −80 °C until analysis.
Cell and tissue culture media extracts were analysed using a Dionex Ultimate 3000 UHPLC system coupled to a Thermo Scientific Q Exactive Plus orbitrap mass spectrometer (Thermo Fisher Scientific Inc., Waltham, USA). Separation of analytes was achieved using an Acquity UPLC HSS T3 column (1.8 μm, 100 × 2.1 mm) (Waters, Elstree, UK) at a temperature of 50 °C and a binary mobile phase gradient at a flow rate of 0.4 mL/min. […] Sample analysis was by electrospray atmospheric pressure ionization combined with full scan acquisition in positive ion mode. […] Full MS/dd-MS^2 (full MS scan followed by data dependent MS/MS) and Full MS/AIF (full MS scan followed by all ion fragmentation) workflows were used in combination. Identification/presence of metabolites was undertaken with the aid of the software Compound Discoverer (v2.0.0.303, Thermo Fisher Scientific Inc., Waltham, USA).

KDM5 = settings: H3K4Me3 levels in PC9 cells; cited from earlier work
KDM5B [1] = target: T1, KDM5B (Homo sapiens, UniProt Q9UGL1); assay: cell-based
T1 sequence (Q9UGL1 26-772): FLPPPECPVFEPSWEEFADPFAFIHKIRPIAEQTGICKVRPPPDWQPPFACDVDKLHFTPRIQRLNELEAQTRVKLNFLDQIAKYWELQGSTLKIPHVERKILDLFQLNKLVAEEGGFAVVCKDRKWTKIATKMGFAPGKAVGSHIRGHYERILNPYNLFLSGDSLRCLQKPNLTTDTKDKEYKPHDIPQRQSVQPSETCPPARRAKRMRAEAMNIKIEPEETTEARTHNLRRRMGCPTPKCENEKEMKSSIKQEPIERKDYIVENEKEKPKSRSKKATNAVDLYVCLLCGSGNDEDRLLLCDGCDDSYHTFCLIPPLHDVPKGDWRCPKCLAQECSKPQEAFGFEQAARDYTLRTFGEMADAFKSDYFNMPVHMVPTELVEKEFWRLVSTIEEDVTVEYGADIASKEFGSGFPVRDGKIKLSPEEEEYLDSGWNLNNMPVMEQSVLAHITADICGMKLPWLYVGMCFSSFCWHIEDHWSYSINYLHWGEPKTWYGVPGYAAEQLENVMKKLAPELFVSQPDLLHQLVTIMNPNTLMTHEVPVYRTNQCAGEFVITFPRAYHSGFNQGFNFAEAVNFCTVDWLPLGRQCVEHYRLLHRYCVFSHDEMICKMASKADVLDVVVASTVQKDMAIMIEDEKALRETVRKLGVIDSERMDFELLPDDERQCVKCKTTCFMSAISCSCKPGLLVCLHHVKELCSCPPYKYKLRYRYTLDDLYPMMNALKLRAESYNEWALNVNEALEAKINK

KDM5B [2] = target: KDM5B (Homo sapiens, UniProt Q9UGL1); assay: cell-based; remark: listed apart in the source
Target sequence in this assay (Q9UGL1 whole entry): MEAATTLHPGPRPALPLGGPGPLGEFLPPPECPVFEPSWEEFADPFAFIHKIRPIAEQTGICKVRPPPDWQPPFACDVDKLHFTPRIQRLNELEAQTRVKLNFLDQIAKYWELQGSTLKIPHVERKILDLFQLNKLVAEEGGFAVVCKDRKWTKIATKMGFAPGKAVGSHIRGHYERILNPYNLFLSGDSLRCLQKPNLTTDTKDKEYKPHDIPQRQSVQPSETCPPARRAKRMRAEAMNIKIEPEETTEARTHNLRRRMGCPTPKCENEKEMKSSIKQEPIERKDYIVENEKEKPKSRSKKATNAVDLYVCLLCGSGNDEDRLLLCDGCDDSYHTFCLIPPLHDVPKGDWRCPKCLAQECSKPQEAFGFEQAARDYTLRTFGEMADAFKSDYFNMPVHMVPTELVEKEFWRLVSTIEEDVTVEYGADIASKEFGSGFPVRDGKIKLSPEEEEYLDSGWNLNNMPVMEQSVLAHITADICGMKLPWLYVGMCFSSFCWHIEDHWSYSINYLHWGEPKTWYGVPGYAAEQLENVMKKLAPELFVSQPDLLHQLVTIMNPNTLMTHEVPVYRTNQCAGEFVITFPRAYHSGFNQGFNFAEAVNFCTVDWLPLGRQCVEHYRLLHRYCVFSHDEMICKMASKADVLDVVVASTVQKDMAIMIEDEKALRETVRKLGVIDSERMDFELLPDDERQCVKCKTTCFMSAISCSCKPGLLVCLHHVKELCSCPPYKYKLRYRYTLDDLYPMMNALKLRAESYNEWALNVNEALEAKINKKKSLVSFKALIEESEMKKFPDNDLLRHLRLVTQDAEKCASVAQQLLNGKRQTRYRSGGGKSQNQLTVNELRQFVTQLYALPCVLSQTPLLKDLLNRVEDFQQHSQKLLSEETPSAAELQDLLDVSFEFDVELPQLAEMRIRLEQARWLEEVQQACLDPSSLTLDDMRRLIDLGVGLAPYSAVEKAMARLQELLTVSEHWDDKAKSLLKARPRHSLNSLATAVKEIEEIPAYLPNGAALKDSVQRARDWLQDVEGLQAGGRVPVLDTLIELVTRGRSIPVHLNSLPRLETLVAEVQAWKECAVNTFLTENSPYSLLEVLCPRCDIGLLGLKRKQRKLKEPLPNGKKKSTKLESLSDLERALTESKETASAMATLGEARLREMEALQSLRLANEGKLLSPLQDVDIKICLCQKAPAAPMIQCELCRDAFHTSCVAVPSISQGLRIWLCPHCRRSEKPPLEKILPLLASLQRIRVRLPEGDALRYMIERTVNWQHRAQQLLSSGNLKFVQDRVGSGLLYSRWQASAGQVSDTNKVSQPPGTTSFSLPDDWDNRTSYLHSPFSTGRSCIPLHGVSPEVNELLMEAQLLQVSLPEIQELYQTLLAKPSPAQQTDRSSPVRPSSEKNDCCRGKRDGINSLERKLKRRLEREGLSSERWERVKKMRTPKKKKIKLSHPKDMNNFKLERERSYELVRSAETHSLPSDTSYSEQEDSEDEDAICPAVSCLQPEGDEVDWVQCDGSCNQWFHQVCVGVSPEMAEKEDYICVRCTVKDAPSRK

[3] = Kinetic aqueous solubility
[4] = Human plasma protein binding
[5] = In vitro intrinsic microsomal clearance, rat; settings: microsomes
[6] = In vitro intrinsic microsomal clearance, mouse; settings: microsomes
[7] = In vitro intrinsic microsomal clearance, human; settings: microsomes

EC50 (KDM5B [1]) [nM]	EC50 (KDM5B [2]) [nM]	SMILES	cell uptake (LNCaP cells)	stability in cellular culture (metabolites in cells or media) (LNCaP cells)	EC50 (KDM5) [nM]	solubility kinetic [3] [µM]	fraction unbound [4]	microsomal CLint [5] [µL/min/mg]	microsomal CLint [6] [µL/min/mg]	microsomal CLint [7] [µL/min/mg]
–	–	O=c1[nH]cnc2c(-n3cc(CCN4CCC5(CCc6ccccc65)CC4)cn3)cccc12 [Compound 41]	uptake of the parent compounds in a time-dependent manner	no metabolites detected	–	–	–	–	–	–
300	600	CC(C)c1c(-c2cnn(C(C)(C)C)c2)[nH]c2c(C#N)cnn2c1=O [Compound 6]	–	–	340	–	–	–	–	–
–	–	O=c1[nH]cnc2c(-n3cc(CCN4CCC5(CCc6ccccc65)CC4)cn3)nccc12 [Compound 19a, 8-(4-(2-(2,3-Dihydrospiro[indene-1,4′-piperidin]-1′-yl)ethyl)-1H-pyrazol-1-yl)pyrido[3,4-d]pyrimidin-4(3H)-one]	uptake of the parent compounds in a time-dependent manner	no metabolites detected	–	93.3 (≈ 39.8 µg/mL)	0.11	19.8	7.5	24.7

Source: PMC6580095, “C8-substituted pyrido[3,4-d]pyrimidin-4(3H)-ones: Studies towards the identification of potent, cell penetrant Jumonji C domain containing histone lysine demethylase 4 subfamily (KDM4) inhibitors, compound profiling in cell-based target engagement assays” (European Journal of Medicinal Chemistry, 2019)
